d = 2'-deoxy (DNA); r = 2'-OH (RNA)
Legend:
CDD-induced pancreatitis = test: Transfer of hemin/siRNA pretreated peritoneal cells into CDD-fed mice, histologic scoring; type: in vivo; settings: recipients of peritoneal cells from hemin + siRNA injected mice; 2.5 d CDD; mean±SD, n=5-6/group
Experimental: (A,B) Peritoneal cells were isolated from hemin-treated mice that were also injected intraperitoneally on alternate days with saline (−), HO-1 siRNA (construct #1 and #2), or scramble control (Sc) siRNA. The peritoneal cells were then used to examine HO-1 and HO-2 levels by immunoblotting. (C,D) Peritoneal cells were harvested from hemin/construct #2 HO-1 siRNA or hemin/scrambled siRNA injected mice then transferred into naive recipient littermates followed by immediate initiation of CDD feeding. At 2.5 d of CDD feeding, pancreata were collected for histologic scoring. Data for histology score are presented as mean±SD (n=5-6/group), and are 6.4±1.7 (scrambled) and 12.7±4.5 (HO-1 siRNA). […]
Hemin pretreated peritoneal cell transfer into CDD-fed mice. […] Mice were sacrificed after 2.5 d of CDD feeding, followed by isolation of the pancreata.(for histological and fluorescence staining) and blood. […] The severity of pancreatitis was scored using established histological criteria that assigned individual numerical scores (1=mild, 2=moderate, 3=severe) to edema, inflammation, hemorrhage; and alternate scores for parenchymal necrosis (3=focal, 5=sublobular, and 7=lobular). […]
HO-1 siRNA and hemin pretreated cell transfer. […] After 7 days, peritoneal cells were harvested and analyzed by immunoblotting using antibodies to HO-1/2. […]

HO-1 = HO-1 knock-down in vivo by siRNA, immunoblot of peritoneal cells; set-up: species or system mice; settings: siRNA 2 mg/kg i.p. 3×, hemin on intervening days
Experimental: (A,B) Peritoneal cells were isolated from hemin-treated mice that were also injected intraperitoneally on alternate days with saline (−), HO-1 siRNA (construct #1 and #2), or scramble control (Sc) siRNA. The peritoneal cells were then used to examine HO-1 and HO-2 levels by immunoblotting. (C,D) Peritoneal cells were harvested from hemin/construct #2 HO-1 siRNA or hemin/scrambled siRNA injected mice then transferred into naive recipient littermates followed by immediate initiation of CDD feeding. At 2.5 d of CDD feeding, pancreata were collected for histologic scoring. Data for histology score are presented as mean±SD (n=5-6/group), and are 6.4±1.7 (scrambled) and 12.7±4.5 (HO-1 siRNA). (E) Pancreata from panels C,D were double stained using antibodies to F4/80 and HO-1 (scale bar=20 μm).
HO-1 siRNA and hemin pretreated cell transfer. Mice were injected i.p. every other day (3 total injections) with either saline or with two HO-1 siRNA constructs (2 mg/kg body weight), or with a scrambled siRNA sequence. Hemin was injected in the intervening days (an additional 3 injections). After 7 days, peritoneal cells were harvested and analyzed by immunoblotting using antibodies to HO-1/2. […] The siRNAs were synthesized by Dharmacon Research Inc. (Lafayette, Colo.) and tested previously. Zhang, X., Shan, P., Jiang, D., Noble, P. W., Abraham, N. G., Kappas, A., and Lee, P. J. 2004. […]

Row | Substance | histology score (CDD-induced pancreatitis) | HO-1 level in peritoneal cells (HO-1)
1 | scrambled: nonspecific siRNA scrambled duplex: 5′-GCGCGCUUUGUAGGAUUCGdTdT-3′ (sense), 5′-CGAAUCCUACAAAGCGCGCdTdT-3′ (antisense) (sense GCGCGCUUUGUAGGAUUCGTT; antisense CGAAUCCUACAAAGCGCGCTT; sugars from the 5' end r19 d2, backbone not given here) | 6.4±1.7 | –
2 | HO-1 siRNA: HO-1 siRNA construct #2: 5′-GCCACACAGCACUAUGUAAdTdT-3′ (sense), 5′-UUACAUAGUGCUGUGUGGCdTdT-3′ (antisense) (sense GCCACACAGCACUAUGUAATT; antisense UUACAUAGUGCUGUGUGGCTT; chemistry not fully specified) | 12.7±4.5 | significant inhibition of HO-1
